Experimental data published in patent publication US8476463B2 (BASF SE, priority 2008, dated 2013).

Assay: Temperature-dependent solubility (saturation concentration) of fumaric acid in di-n-butyl phthalate absorbent
Assay type: physicochemical
Description: The analysis can be effected, for example, by means of calibrated gas chromatography. For calibration, preference is given to using an internal standard, for example diethylene glycol dimethyl ether. Before the gas chromatography analysis, the sample is generally homogenized, i.e. taken up in a solvent. One example of a solvent entirely suitable for this purpose is N,N-dimethylformamide. […] Particularly suitable separating columns are capillary columns with 100% dimethylpolysiloxane (e.g. DB-1 from Agilent) or (14% cyanopropylphenyl)methylpolysiloxane (e.g. DB-1701 from Agilent), preferably each of length 60 m, internal diameter 0.32 mm and film thickness 1 μm.
The syringe attachment filter used is a membrane filter of pore width 0.2 micrometer. […] Its concentration is determined analogously to the analysis method described in the determination of c(FA, desorption column outlet). […] When establishing the new, higher temperature, the temperature of the suspension must not overshoot the desired temperature by more than 3° C. When the desired temperature has been established, the mixture is then stirred at constant temperature at least for a duration of 4 hours. • (6) After this continued stirring time, another sample is taken, as described in point (4). In each sampling, generally a new syringe attachment filter is used.
Examples of secondary components caused by the industrial process include water, maleic anhydride, maleic acid, acrylic acid, methacrylic acid, acetic acid, propionic acid, phthalic anhydride and phthalic acid. […] The continuous line corresponds to the fitted curve.

- saturation concentration of fumaric acid in the solution (mixture of dibutyl phthalate and fumaric acid, 50° C.): 250 ppm by weight
- saturation concentration of fumaric acid in the solution (solution from industrially operated maleic anhydride plant (dibutyl phthalate >98.5% by weight), 30° C.): 250 ppm by weight
- saturation concentration of fumaric acid in the solution (solution from industrially operated maleic anhydride plant (dibutyl phthalate >98.5% by weight), 50° C.): 400 ppm by weight
SMILES: O=C(O)/C=C/C(=O)O [fumaric acid]
